Laboratory results published in the supplement of paper PMC10307832.

Key:
Test in all cases: relative viability (nuclei count vs DMSO), 5 days (fraction); higher = more cells survive
[1] = compound: c1ccc2c(CCNc3ccc(Nc4ccncc4)cc3)c[nH]c2c1 [Serdemetan] + Nc1nc2[nH]cc(CCc3ccc(C(=O)N[C@@H](CCC(=O)O)C(=O)O)cc3)c2c(=O)[nH]1 [Pemetrexed] (partner 0.2 µM)
Procedure, shortened: (§1)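 Relative viability was taken as the ratio of nuclei in treated wells to nuclei in vehicle wells. Lung cancer cell lines in 1536-well plates received compounds by pin tool one day after seeding, either one drug alone or a fixed anchor-drug dose plus five library-drug doses (not always all listed) in √10 steps. Nuclei were counted on 4× images after 5 days of treatment, and values are medians of duplicate plates.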

[2] = compound: C1CC(C2=C(C1)C3=C(N2)C=CC(=C3)Cl)C(=O)N [Selisistat] + COc1cccc2cc(-c3nc([C@H]4CC[C@H](C(=O)O)CC4)n4ncnc(N)c34)[nH]c12 [OSI-027] (partner 0.5 µM)
Procedure, shortened: as §1

[3] = compound: c1ccc2c(CCNc3ccc(Nc4ccncc4)cc3)c[nH]c2c1 [Serdemetan]
Procedure, shortened: (§2)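 Following overnight incubation at 37 °C, lung cancer cell lines in 1536-well plates were pinned with five library-drug doses (not always all listed) in √10 steps on vehicle-anchored plates. The cells then spent 5 days without medium change before a combined fix, permeabilisation and Hoechst stain, 4× imaging and MetaXpress nuclear counts. Viability is the treated-to-vehicle ratio of nuclei, taken as the median across plates. Only plates with control CV below 25% and at least one doubling passed.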

[4] = compound: C1CC(C2=C(C1)C3=C(N2)C=CC(=C3)Cl)C(=O)N [Selisistat]
Procedure, shortened: as §2

NCI-H2342
relative viability ([1]; first compound 0.04 µM): 0.789
relative viability ([1]; first compound 0.1265 µM): 0.752
relative viability ([1]; first compound 0.4 µM): 0.835
relative viability ([1]; first compound 1.265 µM): 0.516
relative viability ([1]; first compound 4 µM): 0.641
relative viability ([2]; first compound 0.4 µM): 0.654
relative viability ([2]; first compound 1.265 µM): 0.589
relative viability ([2]; first compound 4 µM): 0.493
relative viability ([2]; first compound 12.65 µM): 0.577
relative viability ([2]; first compound 40 µM): 0.628
relative viability ([3]; 0.04 µM): 1.17
relative viability ([3]; 0.1265 µM): 1.13
relative viability ([3]; 0.4 µM): 1.08
relative viability ([3]; 1.265 µM): 0.84
relative viability ([3]; 4 µM): 0.69
relative viability ([4]; 0.4 µM): 1.06
relative viability ([4]; 1.265 µM): 0.881
relative viability ([4]; 4 µM): 0.908
relative viability ([4]; 12.65 µM): 0.94
relative viability ([4]; 40 µM): 0.928

NCI-H2347
relative viability ([1]; first compound 0.04 µM): 0.498
relative viability ([1]; first compound 0.1265 µM): 0.429
relative viability ([1]; first compound 0.4 µM): 0.42
relative viability ([1]; first compound 4 µM): 0.445
relative viability ([2]; first compound 0.4 µM): 0.61
relative viability ([2]; first compound 1.265 µM): 0.403
relative viability ([2]; first compound 4 µM): 0.246
relative viability ([2]; first compound 12.65 µM): 0.482
relative viability ([2]; first compound 40 µM): 0.46
relative viability ([3]; 0.04 µM): 0.982
relative viability ([3]; 0.1265 µM): 0.887
relative viability ([3]; 0.4 µM): 0.903
relative viability ([3]; 1.265 µM): 0.603
relative viability ([3]; 4 µM): 0.7
relative viability ([4]; 0.4 µM): 1.02
relative viability ([4]; 1.265 µM): 1.09
relative viability ([4]; 4 µM): 0.716
relative viability ([4]; 12.65 µM): 0.993
relative viability ([4]; 40 µM): 0.99

NCI-H2405
relative viability ([1]; first compound 0.04 µM): 1.04
relative viability ([1]; first compound 0.1265 µM): 1.02
relative viability ([1]; first compound 0.4 µM): 1.1
relative viability ([1]; first compound 1.265 µM): 0.609
relative viability ([1]; first compound 4 µM): 0.983
relative viability ([2]; first compound 0.4 µM): 0.674
relative viability ([2]; first compound 1.265 µM): 0.579
relative viability ([2]; first compound 4 µM): 0.598
relative viability ([2]; first compound 12.65 µM): 0.674
relative viability ([2]; first compound 40 µM): 0.666
relative viability ([3]; 0.04 µM): 0.99
relative viability ([3]; 0.1265 µM): 1.01
relative viability ([3]; 0.4 µM): 0.984
relative viability ([3]; 1.265 µM): 0.921
relative viability ([3]; 4 µM): 0.859
relative viability ([4]; 0.4 µM): 1.06
relative viability ([4]; 1.265 µM): 0.88
relative viability ([4]; 4 µM): 0.657
relative viability ([4]; 12.65 µM): 0.984
relative viability ([4]; 40 µM): 0.992

NCI-H3122
relative viability ([1]; first compound 0.04 µM): 0.182
relative viability ([1]; first compound 0.1265 µM): 0.201
relative viability ([1]; first compound 0.4 µM): 0.197
relative viability ([1]; first compound 1.265 µM): 0.178
relative viability ([1]; first compound 4 µM): 0.2
relative viability ([2]; first compound 0.4 µM): 0.9
relative viability ([2]; first compound 1.265 µM): 0.933
relative viability ([2]; first compound 4 µM): 0.444
relative viability ([2]; first compound 12.65 µM): 0.892
relative viability ([2]; first compound 40 µM): 1.01
relative viability ([3]; 0.04 µM): 0.995
relative viability ([3]; 0.1265 µM): 0.984
relative viability ([3]; 0.4 µM): 0.948
relative viability ([3]; 1.265 µM): 0.758
relative viability ([3]; 4 µM): 1.02
relative viability ([4]; 0.4 µM): 1.03
relative viability ([4]; 1.265 µM): 1.07
relative viability ([4]; 4 µM): 0.782
relative viability ([4]; 12.65 µM): 1.03
relative viability ([4]; 40 µM): 1.02

PC-3 [JPC-3]
relative viability ([1]; first compound 0.04 µM): 1.12
relative viability ([1]; first compound 0.1265 µM): 1.07
relative viability ([1]; first compound 0.4 µM): 0.991
relative viability ([1]; first compound 1.265 µM): 0.829
relative viability ([1]; first compound 4 µM): 1.05
relative viability ([2]; first compound 0.4 µM): 0.931
relative viability ([2]; first compound 1.265 µM): 0.776
relative viability ([2]; first compound 4 µM): 0.739
relative viability ([2]; first compound 12.65 µM): 0.662
relative viability ([2]; first compound 40 µM): 0.731
relative viability ([3]; 0.04 µM): 1.04
relative viability ([3]; 0.1265 µM): 0.961
relative viability ([3]; 0.4 µM): 0.702
relative viability ([3]; 1.265 µM): 0.98
relative viability ([3]; 4 µM): 1.06
relative viability ([4]; 0.4 µM): 1.14
relative viability ([4]; 1.265 µM): 1.04
relative viability ([4]; 4 µM): 0.85
relative viability ([4]; 12.65 µM): 1.07
relative viability ([4]; 40 µM): 0.948

PC-14
relative viability ([1]; first compound 0.04 µM): 0.133
relative viability ([1]; first compound 0.1265 µM): 0.139
relative viability ([1]; first compound 1.265 µM): 0.137
relative viability ([1]; first compound 4 µM): 0.143
relative viability ([2]; first compound 0.4 µM): 0.973
relative viability ([2]; first compound 1.265 µM): 0.783
relative viability ([2]; first compound 4 µM): 0.755
relative viability ([2]; first compound 12.65 µM): 0.819
relative viability ([2]; first compound 40 µM): 0.931
relative viability ([3]; 0.04 µM): 0.966
relative viability ([3]; 0.1265 µM): 0.972
relative viability ([3]; 0.4 µM): 0.689
relative viability ([3]; 1.265 µM): 0.907
relative viability ([3]; 4 µM): 0.728
relative viability ([4]; 0.4 µM): 1.02
relative viability ([4]; 1.265 µM): 0.957
relative viability ([4]; 4 µM): 0.891
relative viability ([4]; 12.65 µM): 0.954
relative viability ([4]; 40 µM): 1.09
